Measured values from paper PMC5607274, “An iterative compound screening contest method for identifying target protein inhibitors using the tyrosine-protein kinase Yes” (Scientific Reports, 2017).

target: T1, human recombinant Yes [a.a. 2–543 (end)] (Homo sapiens, UniProt P07947); experiment: ADP-Glo kinase assay, inhibition rates of Yes phosphorylation activity (first and second screening); format: biochemical; conditions: first screening; mean of n = 4 wells; 10 μmol L−1 compound
T1 construct: human recombinant Yes [a.a; 2–543 (end)]; purchased BPS Bioscience 40488
T1 sequence (P07947 2-543): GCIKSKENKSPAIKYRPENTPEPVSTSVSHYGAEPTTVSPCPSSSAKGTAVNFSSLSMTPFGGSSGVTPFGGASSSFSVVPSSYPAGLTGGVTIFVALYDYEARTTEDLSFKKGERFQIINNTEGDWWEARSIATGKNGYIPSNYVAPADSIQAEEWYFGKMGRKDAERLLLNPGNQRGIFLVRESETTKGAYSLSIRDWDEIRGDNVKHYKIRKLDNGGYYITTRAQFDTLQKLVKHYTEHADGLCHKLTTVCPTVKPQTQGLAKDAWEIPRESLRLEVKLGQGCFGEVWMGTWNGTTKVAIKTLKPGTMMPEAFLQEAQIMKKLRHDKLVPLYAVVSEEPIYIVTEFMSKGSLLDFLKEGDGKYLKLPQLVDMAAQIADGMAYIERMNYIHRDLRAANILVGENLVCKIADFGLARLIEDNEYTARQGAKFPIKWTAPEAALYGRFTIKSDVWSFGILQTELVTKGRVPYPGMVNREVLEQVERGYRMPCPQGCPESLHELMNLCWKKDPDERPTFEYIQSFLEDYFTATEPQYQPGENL
Outline: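 Hits from a first pass were rescreened after re-dissolution from fresh powder. The first pass reported the mean inhibition rate of quadruplicate wells per compound. Activity was that of recombinant human Yes [a.a. 2–543] kinase, read out with the ADP-Glo ADP-detection method.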

SMILES	First screening IR (inhibition rate) [%]
CCN(CCNC(=O)c1[nH]c2c(c1C)C(=O)CCC2)c1cccc(C)c1 [Compound Z188949814]	-5
CC(C)(C)C1CCC(C(=O)N2CCC(C(=O)N3CCCCCC3)CC2)CC1 (centres unmarked) [Compound Z191288442]	7
Cc1noc(C)c1CCC(=O)Nc1nc2cc(C(F)(F)F)ccc2n1Cc1ccco1 [Compound Z193270258]	0
CN(C)c1nc(N)nc(CSc2nnc(-c3ccccc3)n2C)n1 [Compound Z193722710]	6
CCC(Sc1n[nH]c(C(C)C)n1)C(=O)Nc1ccc(F)cc1 (centres unmarked) [Compound Z193785446]	-8
Cc1cn2c(/C=C/C(=O)c3ccc(OCC(=O)N(C)C)cc3)c(C)nc2s1 [Compound Z196370782]	-2
CN(C)c1nc(N)nc(CSCC(=O)Nc2cccc(Cl)c2Cl)n1 [Compound Z197452730]	4
CN(C)c1nc(N)nc(CSCCOc2ccccc2F)n1 [Compound Z197453168]	9
CN(C)c1nc(N)nc(CSCCOc2ccc(F)cc2)n1 [Compound Z197453372]	-8
Cc1cc(C(=O)CSCc2nc(N)nc(N(C)C)n2)c(C)n1C1CC1 [Compound Z197454120]	4
CC(SCc1nc(N)nc(N(C)C)n1)C(=O)Nc1ccc(F)cc1F (centres unmarked) [Compound Z197454476]	-5
CC(SCc1nc(N)nc(N(C)C)n1)C(=O)Nc1cc(F)ccc1F (centres unmarked) [Compound Z197454478]	15
CC(SCc1nc(N)nc(N(C)C)n1)C(=O)NC1CCCCCC1 (centres unmarked) [Compound Z197454502]	1
CC(SCc1nc(N)nc(N(C)C)n1)C(=O)Nc1ccc2c(c1)CCC2 (centres unmarked) [Compound Z197454542]	5
COc1ccc(C)cc1C(C)NC(=O)CCc1nc2ccccc2[nH]1 (centres unmarked) [Compound Z197873940]	60
CN(CCO)c1ccc(S(C)(=O)=O)cc1S(C)(=O)=O [Compound Z199538264]	3

SMILES	First screening IR (inhibition rate) [%]
CCCCN(C)c1ccc(S(C)(=O)=O)cc1S(C)(=O)=O [Compound Z199538358]	8
CCC(NC(=O)c1cc(C)nc2c1cnn2C(C)C)c1ccc(C)cc1 (centres unmarked) [Compound Z203056244]	-5
Cc1cc(C(=O)Nc2ccc(F)c(F)c2)c2cnn(C(C)C)c2n1 [Compound Z203269322]	39
O=C(Nc1cc(-c2cccc([N+](=O)[O-])c2)sc1C(=O)O)c1cc2c(s1)CCC2 [Compound Z204341220]	-3
O=C(Nc1cc(-c2cccc([N+](=O)[O-])c2)sc1C(=O)O)c1ccc2c(c1)OCCO2 [Compound Z204342356]	-1
O=c1[nH]c2ccccc2c2nc(-c3ccc(CSc4nc5ccccc5[nH]4)cc3)nn12 [Compound Z208192218]	16
Cc1cc(COC(=O)c2cc(-c3cccs3)nc3c2cnn3C(C)C)no1 [Compound Z215601214]	-2
COc1cc(NC(=O)COC(=O)c2cc(-c3cccs3)nc3onc(C)c23)cc(OC)c1 [Compound Z218834328]	6
Cc1ccnc(NC(=O)c2cc(-c3ccc(F)cc3)nc3onc(C)c23)c1 [Compound Z219812624]	-14
Cl.Fc1c(-c2ccccc2)nc2ccccc2c1-c1ccccc1 [Compound Z223042658]	30
Cn1ncc2c(N3CCNCC3)ncnc21 [Compound Z223639244]	-11
CCn1ncc2c(C(=O)NC(C)C)cc(-c3ccccc3)nc21 [Compound Z223848612]	6
CCN(CC)C(=O)c1cc(-c2cc(C)oc2C)nc2c1cnn2C(C)C [Compound Z223881508]	-12
COC(=O)c1cc(NC(=O)C2=C(Cl)CCCC2)cc(C(=O)OC)c1 [Compound Z223943920]	-1
O=C(O)/C=C/c1ccc(NC(=O)CSC(c2ccccc2)c2ccccc2)cc1 [Compound Z224289160]	-8

The next lines start with the values.

First screening IR (inhibition rate) [%]	SMILES
1	Cc1ccc(C)c(C(=O)CCC(=O)NC(C)c2nc3ccccc3[nH]2)c1 (centres unmarked) [Compound Z195395734]
0	Cc1c(C#N)c(NC(=O)CN2CCN(CC(=O)N3CCCCC3)CC2)n(-c2cccc(F)c2)c1C [Compound Z195846234]
-3	CC(C)CCn1c(CN2CCN(Cc3ccco3)CC2)nc2c1c(=O)[nH]c(=O)n2Cc1ccccc1 [Compound Z195914778]
2	CC(C)CNC(=O)CN1CCN(c2nc(-c3ccccn3)nc3scc(-c4ccccc4)c23)CC1 [Compound Z196146788]
-13	CC(=O)N1CC=C(c2ccc(Oc3nc(-c4cccnc4)nc4ccccc34)cc2)CC1 [Compound Z196157908]
-14	CN1C/C(=C/c2ccc(SC(F)(F)F)cc2)c2nc3ccccc3c(C(=O)O)c2C1 [Compound Z196352976]
7	Nc1nc(-c2ccccc2)c2cc(C(=O)c3ccccc3O)cnn12 [Compound Z199055452]
-18	CN(Cc1ccc(N2CCOCC2)cc1)Cc1c(O)ccc2ccncc12 [Compound Z199499666]
51	CS(=O)(=O)c1ccc(N2CCCCCC2)c(S(C)(=O)=O)c1 [Compound Z199538216]
0	COc1ccc(S(=O)(=O)N[C@@H](C)C(=O)N2CC=C(c3c(OC)cc(OC)cc3OC)CC2)cc1 [Compound Z203177000]
-8	N#Cc1ccccc1CSCCNc1cc(=O)n2ccccc2n1 [Compound Z203909940]
-10	CC(C)c1cccc(NC(=O)CN(C)CC(=O)N2c3ccccc3NC(=O)CC2C)c1 (centres unmarked) [Compound Z203963094]
-4	O=C(c1ccc(Cl)c(S(=O)(=O)N2CCCCC2)c1)N1CCn2c1nc1ccccc12 [Compound Z204253774]
-3	O=C(/C=C/c1ccco1)Nc1cc(-c2cccc([N+](=O)[O-])c2)sc1C(=O)O [Compound Z204341820]
58	O=C(/C=C/c1cccs1)Nc1cc(-c2cccc([N+](=O)[O-])c2)sc1C(=O)O [Compound Z204342158]
-1	O=C(Nc1cc(-c2cccc([N+](=O)[O-])c2)sc1C(=O)O)c1ccc2c(c1)CCC2 [Compound Z204342388]
5	CC(Sc1nc2ncccn2n1)C(=O)Nc1ccc(Cl)cc1Cl (centres unmarked) [Compound Z207321514]
37	CC(C)n1ncc2c(C(=O)Nc3ccccc3F)cc(-c3ccco3)nc21 [Compound Z216407296]
-1	CC(=O)c1cccc(NC(=O)c2cc(-c3ccco3)nc3c2cnn3C(C)C)c1 [Compound Z216416610]

First screening IR (inhibition rate) [%]	SMILES
21	CC(C)n1ncc2c(C(=O)Nc3ccc(F)cc3Cl)cc(-c3ccco3)nc21 [Compound Z216417110]
-1	CC(C)n1ncc2c(C(=O)Nc3ccc(F)c([N+](=O)[O-])c3)cc(-c3ccco3)nc21 [Compound Z216541962]
-10	CC(C)n1ncc2cc(C(=O)Nc3ccc4[nH]c(=O)[nH]c4c3)cnc21 [Compound Z217430364]
9	Cc1ccc(C(N)=O)c(OCc2ccc(C#N)cc2F)c1 [Compound Z217923492]
12	O=C(NCc1ccc(-c2nc3ccccc3s2)o1)c1ccco1 [Compound Z218238558]
4	Cc1[nH]c(=O)[nH]c(=O)c1CCC(=O)N1CCC(CCc2ccccc2)CC1 [Compound Z219953062]
-9	N#Cc1c(CN2CCN(S(=O)(=O)c3cc(Cl)ccc3Cl)CC2)cn2ccccc12 [Compound Z220381008]
36	Cc1ccccc1-c1nc(SCc2cn3cc(Cl)ccc3n2)n[nH]1 [Compound Z221422064]
-2	Cc1nn(C)c2nc(-c3ccccc3)cc(C(=O)Nc3ccc4c(c3)OCO4)c12 [Compound Z222976544]
-12	Cl.Fc1c(-c2ccccc2)nc2ccc(Cl)cc2c1-c1ccccc1 [Compound Z223042638]
5	CCCCN(C1CCS(=O)(=O)C1)S(=O)(=O)c1ccc(Br)cc1Cl (centres unmarked) [Compound Z223263980]
3	COc1cc(C(=O)NCCc2ccc(-n3cccn3)cc2)ccc1C [Compound Z223337292]
-6	CC1=CC(=C(C#N)c2nc3ccccc3s2)C=C(C)N1c1ccc2c(c1)OCCO2 [Compound Z223450274]
20	CCOc1ccc(N2C(C)=CC(=C(C#N)c3nc4ccccc4s3)C=C2C)cc1 [Compound Z223690154]
49	Cn1c(=O)n(CCN2CCOCC2)c(=O)c2c1nc1n2CCN1c1ccc(Oc2ccccc2)cc1 [Compound Z223838602]
7	O=C(O)c1cc(-c2ccccc2)nc2c1cnn2Cc1ccccc1Cl [Compound Z223844412]
-16	CCn1ncc2c(C(=O)N(C)Cc3ccccc3)cc(-c3ccccc3)nc21 [Compound Z223859126]
10	CCn1ncc2c(C(=O)Nc3ncc(C)s3)cc(-c3ccccc3)nc21 [Compound Z224316064]

same assay, conditions: second screening, dissolved from fresh powder; n = 4; 10 μmol L−1 compound

Second screening IR (inhibition rate) [%]	SMILES
-10	CS(=O)(=O)c1ccc(N2CCCCCC2)c(S(C)(=O)=O)c1 [Compound Z199538216]
-7	O=C(/C=C/c1cccs1)Nc1cc(-c2cccc([N+](=O)[O-])c2)sc1C(=O)O [Compound Z204342158]
-4	Cn1c(=O)n(CCN2CCOCC2)c(=O)c2c1nc1n2CCN1c1ccc(Oc2ccccc2)cc1 [Compound Z223838602]
